The text below walks through data of PMC6124754, “Characterization of new, efficient Mycobacterium tuberculosis topoisomerase-I inhibitors and their interaction with human ABC multidrug transporters” (PLoS ONE, 2018).

In brackets after ≈: the same amount, converted by molar mass. Entries after “also recorded” stand apart in the source; their conditions may differ. Where two headings read alike, the source gives them in different places.

One data set relates to parental A431 cell line. The data set is described as follows: Cytotoxicity, PrestoBlue 72 h, parental A431. The class given is cell-based, human. The following applies: Non-toxic = not toxic up to 20 μM; for IC50: read-out: Toxicity in parental A431 cell line, IC50. On the procedure:
(§1) The toxic effects of the selected MtTopo-I inhibitory Vichem compounds were tested in three cell lines, HFF (human foreskin fibroblast), HEK293 (human embryonic kidney) and A431 (human epidermoid carcinoma) cell lines, obtained from ATCC. Establishment of ABC transporter-expressing A431cell lines was achieved by retroviral transduction of the cells as described previously.
(§2) For cytotoxicity measurements the cells were seeded in a 96-well culture plate at 5,000 cells/well (A431, HEK293) or 6000 cells/well (HFF) and incubated overnight. […] After 72 hours of incubation viability was assessed by PrestoBlue® assay (Invitrogen). IC50 values were obtained by sigmoidal curve fitting in the GraphPad Prism software. All experiments were performed in triplicates and repeated at least in three independent experiments. DMSO, used as solvent of the compounds, had no effect on viability at the applied concentration.

The subject of a further data set is HEK293 cell line. The data set is described as follows: Cytotoxicity, PrestoBlue 72 h, HEK293. Type of data set: cell-based, human. The following applies: for IC50: Homo sapiens, HEK293, Non-toxic = not toxic up to 20 μM, read-out: Toxicity in HEK293 cell line, IC50. Here is the method:
as §1, §2

The next data set deals with HFF cell line. The data set is described as follows: Cytotoxicity, PrestoBlue 72 h, HFF. The following applies: Non-toxic = not toxic up to 20 μM; for IC50: read-out: Toxicity in HFF cell line, IC50. The class given is cell-based, human. On the procedure: as §1, §2
A further data set deals with H37Rv Mtb strain. The data set is described as follows: H37Rv growth inhibition, resazurin reduction microplate assay (REMA). Type of data set: cell-based, Mycobacterium tuberculosis. The following applies: for Toxicity in H37Rv assay (summary): S6 summary table. For orientation: The colour change of resazurin is a common sign of viable cells or microbes.
Data set [1] concerns ABCB1-overexpressing A431 cell line. The following applies: human, 72 h.
For data set [2], the system named is HFF, HEK293 and A431 cell lines. Type of data set: cell-based, human. On the procedure: as §1, §2
The target of data set [3] is T1, human ABCB1 (Homo sapiens, UniProt P08183). The data set is described as follows: Cellular transport assay, Calcein-AM uptake in ABCB1-overexpressing PLB cells. Type of data set: cell-based. The following applies: S6 summary table. Here is the method:
(§3) For cellular transport assays, mammalian PLB (lymphoblastoid) cell lines, overexpressing ABCB1 or ABCG2 were used. The parental PLB cell line was purchased from ATCC, and ABCB1 or ABCG2 overexpressing cell lines were established by using lentiviral vectors for human ABC transporters as described earlier in [29]. The transport assays were carried out in 96-well plates. 1x10^5 cells were incubated in the presence of 0.1 μM Calcein-AM or 1 μM DCV (Dye Cycler Violet) for the ABCB1 and for the ABCG2 assays, respectively. The assay was performed in HPMI medium (NaCl 120 mM, KCl 5 mM, MgCl2 0.4 mM, CaCl2 0.04 mM, HEPES 10 mM, NaHCO3 10 mM, glucose 10 mM, Na2HPO4 5 mM; pH 7.4). Fluorescence of the cells was detected using a Victor X3 plate reader (for Calcein, exc. at 485 nm, em. at 535 nm) or the Enspire 2300 (Perkin Elmer) plate reader (for DCV, exc. at 360 nm, em. at 440 nm). Kinetics of fluorescence intensity changes were analyzed to determine relative inhibition, compared to that of a reference agent, providing full inhibition of the ABC transporter. Two of the Vichem compounds examined (VCC979812 and VCC38977) were not compatible with the DCV uptake assay because of their intrinsic fluorescence, therefore for these two compounds ABCG2 transport inhibition was characterized by following mitoxantrone uptake. Mitoxantrone uptake was measured by flow cytometry (BD FACSCanto at 633 nm) by 20 minutes incubation in the presence of 7.5 μM mitoxantrone. Each compound was measured in at least three independent experiments with three parallels in each case. DMSO, used as a solvent of compounds had no effect in this assay at the applied concentration.

A further data set concerns the target T2, MtTopo-I (Mycobacterium tuberculosis, UniProt P9WG49).
T2 construct: made in house; host or cells: E. coli
The data set is described as follows: DNA relaxation assay of supercoiled pUC18 DNA by MtTopo-I. The class given is biochemical. The following applies: minimum concentration providing complete inhibition.

The target in data set [4] is T3, human ABCG2 (Homo sapiens, UniProt Q9UNQ0).
T3 sequence (Q9UNQ0 1-655): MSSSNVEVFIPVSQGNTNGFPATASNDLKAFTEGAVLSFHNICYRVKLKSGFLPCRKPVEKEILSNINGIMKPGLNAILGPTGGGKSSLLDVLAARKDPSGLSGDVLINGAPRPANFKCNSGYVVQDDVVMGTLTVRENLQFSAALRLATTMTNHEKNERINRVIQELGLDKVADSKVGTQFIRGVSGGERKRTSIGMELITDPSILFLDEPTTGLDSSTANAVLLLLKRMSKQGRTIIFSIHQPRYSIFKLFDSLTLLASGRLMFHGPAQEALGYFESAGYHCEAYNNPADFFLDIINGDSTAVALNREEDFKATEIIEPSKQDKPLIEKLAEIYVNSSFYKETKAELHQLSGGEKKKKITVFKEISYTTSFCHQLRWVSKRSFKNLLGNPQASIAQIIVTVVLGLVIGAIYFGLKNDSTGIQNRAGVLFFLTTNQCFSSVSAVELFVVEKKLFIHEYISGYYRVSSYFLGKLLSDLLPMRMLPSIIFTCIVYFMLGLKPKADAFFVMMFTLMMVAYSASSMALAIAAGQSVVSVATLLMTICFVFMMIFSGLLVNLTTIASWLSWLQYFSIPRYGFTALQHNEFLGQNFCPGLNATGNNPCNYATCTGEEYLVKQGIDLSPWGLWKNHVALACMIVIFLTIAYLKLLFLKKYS
The data set is described as follows: Vanadate-sensitive ATPase activity assay in Sf9 membrane vesicles, ABCG2. The class given is biochemical. On the set-up: made in house; host or cells: Sf9 insect cells (baculovirus), membrane vesicles; ABCG2 ATPase, concentration at Vmax: unit not given here. The following applies: for ABC transporter ATPase assay, ABCG2 (summary): S6 summary table; for Effect on ABCG2-ATPase activity (in words): Sf9 membrane vesicles, 0.1–10 μM for stimulation, 50 μM for inhibition; for ABCG2 ATPase Vmax: vanadate-sensitive ATPase, from dose-response curves, basal 22±1.4.

Data set [5] deals with ABCG2-overexpressing A431 cell line. The following applies: human, 72 h.
Data set [6] deals with T1, human ABCB1. The data set is described as follows: Vanadate-sensitive ATPase activity assay in Sf9 membrane vesicles, ABCB1. The class given is biochemical. On the set-up: made in house; host or cells: Sf9 insect cells (baculovirus), membrane vesicles; ABCB1 ATPase Vmax: unit not given here. The following applies: for ABC transporter ATPase assay, ABCB1 (summary): S6 summary table; for Effect on ABCB1-ATPase activity (in words): Sf9 membrane vesicles, 0.1–10 μM for the stimulation in b53; for ABCB1 ATPase Vmax: vanadate-sensitive ATPase, from dose-response curves, basal 5.7±0.7.

Data set [7] deals with T3, human ABCG2. The data set is described as follows: Cellular transport assay, DCV or mitoxantrone uptake in ABCG2-overexpressing PLB cells. The following applies: S6 summary table. The class given is cell-based. On the set-up: expressed in transfected cells; host or cells: PLB (human lymphoblastoid) cells, lentiviral transduction. Here is the method: as §3
Where [8] appears, read: concentration at which Vmax was seen.

T1 sequence (P08183 whole entry): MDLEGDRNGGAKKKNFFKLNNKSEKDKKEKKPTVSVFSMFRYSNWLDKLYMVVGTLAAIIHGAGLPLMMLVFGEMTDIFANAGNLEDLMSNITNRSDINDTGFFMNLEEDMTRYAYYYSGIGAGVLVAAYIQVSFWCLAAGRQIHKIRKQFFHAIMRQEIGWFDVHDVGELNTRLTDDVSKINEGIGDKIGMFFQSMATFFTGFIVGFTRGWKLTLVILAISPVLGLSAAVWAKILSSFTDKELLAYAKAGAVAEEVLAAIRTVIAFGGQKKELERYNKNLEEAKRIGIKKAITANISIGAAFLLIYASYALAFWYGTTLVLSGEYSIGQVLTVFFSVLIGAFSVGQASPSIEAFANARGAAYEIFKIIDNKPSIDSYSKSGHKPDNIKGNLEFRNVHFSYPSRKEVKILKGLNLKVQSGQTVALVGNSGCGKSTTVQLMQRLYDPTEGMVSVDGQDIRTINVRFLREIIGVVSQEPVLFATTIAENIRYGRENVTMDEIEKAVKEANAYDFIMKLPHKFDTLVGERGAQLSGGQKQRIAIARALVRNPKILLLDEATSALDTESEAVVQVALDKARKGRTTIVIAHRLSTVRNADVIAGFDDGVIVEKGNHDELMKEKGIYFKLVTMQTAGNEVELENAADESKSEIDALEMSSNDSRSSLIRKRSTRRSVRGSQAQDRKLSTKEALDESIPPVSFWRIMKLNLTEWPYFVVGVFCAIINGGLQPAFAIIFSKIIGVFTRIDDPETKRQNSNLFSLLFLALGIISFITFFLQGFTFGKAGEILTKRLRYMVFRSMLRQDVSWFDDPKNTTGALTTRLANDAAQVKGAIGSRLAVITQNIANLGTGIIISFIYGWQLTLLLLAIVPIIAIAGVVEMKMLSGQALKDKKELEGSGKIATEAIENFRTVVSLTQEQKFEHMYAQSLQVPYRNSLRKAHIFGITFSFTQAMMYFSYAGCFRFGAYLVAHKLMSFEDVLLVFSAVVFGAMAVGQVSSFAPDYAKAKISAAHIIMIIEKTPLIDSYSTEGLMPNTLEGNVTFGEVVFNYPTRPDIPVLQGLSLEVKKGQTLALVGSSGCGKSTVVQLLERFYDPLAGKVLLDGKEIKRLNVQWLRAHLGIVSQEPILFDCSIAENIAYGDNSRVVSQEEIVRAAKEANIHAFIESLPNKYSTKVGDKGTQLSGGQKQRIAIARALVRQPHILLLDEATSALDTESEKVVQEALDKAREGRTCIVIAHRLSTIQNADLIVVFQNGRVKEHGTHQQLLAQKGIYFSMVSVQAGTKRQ
T2 sequence (P9WG49 whole entry): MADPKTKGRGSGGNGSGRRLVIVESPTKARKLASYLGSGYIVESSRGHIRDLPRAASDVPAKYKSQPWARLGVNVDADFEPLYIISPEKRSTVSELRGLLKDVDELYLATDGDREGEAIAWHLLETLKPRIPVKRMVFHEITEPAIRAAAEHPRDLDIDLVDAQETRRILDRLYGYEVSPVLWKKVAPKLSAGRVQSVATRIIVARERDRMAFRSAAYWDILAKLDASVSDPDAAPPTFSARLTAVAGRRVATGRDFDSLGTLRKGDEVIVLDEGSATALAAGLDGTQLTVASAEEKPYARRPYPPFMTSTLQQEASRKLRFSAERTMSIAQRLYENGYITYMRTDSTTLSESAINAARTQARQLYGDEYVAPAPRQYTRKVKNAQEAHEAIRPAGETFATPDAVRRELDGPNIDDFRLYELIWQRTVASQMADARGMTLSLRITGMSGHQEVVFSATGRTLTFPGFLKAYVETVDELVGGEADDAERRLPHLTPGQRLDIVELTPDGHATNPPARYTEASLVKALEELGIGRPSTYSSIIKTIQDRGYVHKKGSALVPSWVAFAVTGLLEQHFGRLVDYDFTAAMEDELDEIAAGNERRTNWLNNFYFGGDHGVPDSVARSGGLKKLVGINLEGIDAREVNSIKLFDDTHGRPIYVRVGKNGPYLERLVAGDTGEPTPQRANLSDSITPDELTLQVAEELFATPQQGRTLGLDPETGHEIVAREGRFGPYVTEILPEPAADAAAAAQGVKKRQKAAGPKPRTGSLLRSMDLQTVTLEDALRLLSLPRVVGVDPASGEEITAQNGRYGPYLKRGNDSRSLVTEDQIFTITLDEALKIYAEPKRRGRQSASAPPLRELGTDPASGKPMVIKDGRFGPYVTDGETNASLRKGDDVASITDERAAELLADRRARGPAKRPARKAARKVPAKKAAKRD

Consider `CCc1c2c(nc3ccc(OC(=O)N4CCC(N5CCCCC5)CC4)cc13)-c1cc3c(c(=O)n1C2)COC(=O)[C@]3(O)CC` [Irinotecan, reference compound], for which the IC50 (commonly the concentration at which inhibition is half-maximal) in the data set with parental A431 cell line (Homo sapiens, A-431, 72 h) was found to be 8.6 µM; in the data set on HEK293 cell line it was 2.5 µM. Also, in the data set with HFF cell line, the “Toxicity in HFF cell line, IC50” value is “Non-toxic”.
Consider `COc1ccc(/C=C/c2nc(NCCCN(C)C)c3cc4ccccc4cc3n2)cc1` [VCC340963], for which the MIC90 (in general, an inhibitory concentration at the 90% level, which refers to growth in some studies and to a panel of isolates in others) with H37Rv Mtb strain (Mycobacterium tuberculosis, H37RV, minimum concentration providing 90% growth inhibition, 20 to 0.04 μM, N.I. = no inhibition observed up to 20 μM, read-out: MIC90 of compounds in H37Rv growth test) is 2.5 µM (≈ 1.03 µg/mL). Besides, the “Toxicity in H37Rv assay (summary)” value in the data set on H37Rv Mtb strain was “+”. Further, the “Growth inhibition of H37Rv mycobacteria (in words)” value in the data set on H37Rv Mtb strain (tested up to 20 μM) was “effectively inhibited the growth”. Further, the “ABC transporter modified cytotoxicity, ABCB1 (summary)” value in data set [1] came to 0. In the data set on parental A431 cell line (Homo sapiens, A-431, 72 h), the half-inhibitory concentration (IC50) is under 5 µM. The IC50 in the data set on parental A431 cell line was 3.23 µM. In data set [2], the “Toxicity in human cell lines (in words)” value is “toxic” and the “Toxicity in mammalian cell lines (summary)” value was “+”. Moreover, the “ABC transporter transport assay, ABCB1 (summary)” value on human ABCB1 [3] is listed as “+”. The “Complete inhibition of MtTopoI” value on MtTopo-I was 10 to 25 µM. Moreover, at human ABCG2 [4], the “ABC transporter ATPase assay, ABCG2 (summary)” value came to 0; the “Effect on ABCG2-ATPase activity (in words)” value is reported as “no measurable effect”; the “ABCG2 ATPase Vmax” value was found to be 22.2±4. The “ABC transporter modified cytotoxicity, ABCG2 (summary)” value in [5] was 0. The IC50 with HEK293 cell line fell in the range of 10 to 20 µM. Moreover, on human ABCB1 [6], the “ABC transporter ATPase assay, ABCB1 (summary)” value was 0; the “Effect on ABCB1-ATPase activity (in words)” value was “no measurable effect”; the “ABCB1 ATPase Vmax” value is listed as 7.9±1.2. For the same compound, the “ABC transporter transport assay, ABCG2 (summary)” value on human ABCG2 [7] is reported as “+”. In the data set on HFF cell line (Homo sapiens, HFF), the IC50 is under 5 µM. The IC50 in the data set with HFF cell line was in the range of 2.5 to 5 µM.
On to `Cc1ccc(-n2nc(C(C)(C)C)cc2Nc2nc3ccccc3nc2NCCCO)cc1` [VCC389777], for which, in the data set with H37Rv Mtb strain, the “Toxicity in H37Rv assay (summary)” value was 0. Further, the “MIC90 of compounds in H37Rv growth test” value in the data set on H37Rv Mtb strain (minimum concentration providing 90% growth inhibition, 20 to 0.04 μM, N.I. = no inhibition observed up to 20 μM) is on record as “N.I”. Besides, the “Toxicity in parental A431 cell line, IC50” value in the data set on parental A431 cell line is “Non-toxic”. The “Toxicity in human cell lines (in words)” value in data set [2] is “non-toxic”. Also, the “Toxicity in mammalian cell lines (summary)” value in data set [2] (human, 72 h) was found to be 0. Also, on human ABCB1 [3], the “ABC transporter transport assay, ABCB1 (summary)” value was “+”. Also, at MtTopo-I, the “Complete inhibition of MtTopoI” value was 7.5 to 10 µM. On human ABCG2 [4], the “ABC transporter ATPase assay, ABCG2 (summary)” value is given as “+”; the “Effect on ABCG2-ATPase activity (in words)” value is “significantly stimulated; also recorded: slightly increased”; the “ABCG2 ATPase Vmax” value came out at 32.0±3.6. Also, the “ABCG2 ATPase, concentration at Vmax” value at human ABCG2 [4] (setting [8]) amounted to 0.4. In the data set with HEK293 cell line (Non-toxic = not toxic up to 20 μM), the “Toxicity in HEK293 cell line, IC50” value is recorded as “Non-toxic”. Also, on human ABCB1 [6], the “ABC transporter ATPase assay, ABCB1 (summary)” value is “+”; the “Effect on ABCB1-ATPase activity (in words)” value was “well measurable stimulatory effect”; the “ABCB1 ATPase Vmax” value stood at 14.4±1.5. Besides, at human ABCB1 [6] (listed as VCC38977), the “Effect on ABCB1-ATPase activity (in words)” value is “slightly increased”. On human ABCB1 [6] (setting [8]), the “ABCB1 ATPase, concentration at Vmax” value came out at 12.5 µM. In addition, at human ABCG2 [7], the “ABC transporter transport assay, ABCG2 (summary)” value is “+”. In addition, the “Toxicity in HFF cell line, IC50” value in the data set on HFF cell line is on record as “Non-toxic”.
